Experimental findings from the NIST ThermoML archive (doi:10.1016/j.fluid.2015.07.022) are described below.

Numbers after ± are expanded uncertainties.

For the series the following is noted: 298.15 K; for viscosity / mass density: 100 kPa, Liquid; for viscosity: Capillary tube (Ostwald / Ubbelohde) method; for mass density: Vibrating tube method.
Setting [1] is: Kruss K11 tensiometer with Wilhelmy plate.

Turning to `CCCCCCCCCCCC` [dodecane], the viscosity is recorded as 1.359 ± 0.015 mPa·s and the mass density stood at 745.23 ± 0.14 kg/m3. Besides, the surface tension liquid-gas under setting [1] is recorded as 24.9 ± 0.2 mN/m.
`CCCCCCCCCCCCCC[P+](CCCCCC)(CCCCCC)CCCCCC.N#C[N-]C#N` [tetradecyl(trihexyl)phosphonium dicyanamide]: the viscosity was determined as 437.8 ± 17 mPa·s and the mass density is given as 897.36 ± 0.72 kg/m3. Moreover, the surface tension liquid-gas under setting [1] turned out to be 33.1 ± 0.4 mN/m.
Regarding `O` [water], the viscosity is given as 0.899 ± 0.01 mPa·s. For the same compound, the surface tension liquid-gas (Kruss K11 tensiometer and Wilhelmy plate) turned out to be 72 ± 0.2 mN/m.

What is called surface tension liquid-gas is the force per length acting along the surface. As usually defined, the viscosity is the resistance of a fluid to flow. For orientation: mass density means mass per unit of volume.
